# Values quoted from earlier work, collected in patent US5084274A, “Inhibition of arterial thrombotic occlusion or thromboembolism” (Scripps Clinic and Research Foundation, priority 1987, dated 1992).
# System: acute arterial thrombosis
# Details: used alone or in combination
substance,measurement,value
heparin,Response of acute complex arterial thrombosis (in words),unresponsive
